Read-outs that look alike come from different tables or passages of the source.
Target: T1, human alpha 7-wt nAChR (Homo sapiens, UniProt P36544)
T1 construct: expressed in transfected cells
Test: Ca2+ flux imaging (FDSS) (protocol B)
Assay type: cell-based
Settings: for EC50: read-out: pEC50 (converted); for Emax: read-out: % Efficacy
Description: Example D.1 : Ca^2+ flux imaging (FDSS) (protocol B)
• a) Assay buffer Hanks buffered saline solution (HBSS, Invitrogen, Belgium), supplemented with 10 mM HEPES (Invitrogen, Belgium), CaCl2 to a final concentration of 5 mM, 0.1 % Bovine serum albumin (Sigma-Aldrich NV, Belgium). • b) Calcium-sensitive dye - Fluo-4AM Fluo-4AM (Molecular Probes, USA) was dissolved in DMSO containing 10% Pluronic acid (Molecular Probes, USA) to give a stock solution which was diluted in assay buffer supplemented with 5 mM probenicid (Sigma, Aldrich NV, Belgium) to give a final concentration of 2 µM • c) 384-well plates Black-sided, transparent bottomed 384 well plates coated with poly-D-lysine, PDL pre-coated (Coming, Incorporated, USA) • d) Calcium flux measurement A Functional drug screening system (FDSS, Hamamatsu) was used to measure intracellular free-calcium flux signals.
Monolayers of human alpha 7-wt nAChR-expressing cells were grown in black-sided, transparent bottomed 384 well plates coated with PDL for 24 hours prior to loading with a fluorescent calcium indicator, fluo-4AM for up to 120 minutes.
PAM activity was detected in real time by applying the compounds to be tested to the loaded cells along with an alpha 7 nicotinic receptor agonist during constant monitoring of cellular fluorescence in a FDSS. Compounds giving peak fluorescent responses greater than the response due to agonist alone, were consideted to be alpha 7 nAChR PAMs. The alpha 7 nicotinic receptor agonist was choline, applied at a sub-maximal concentration of 100 µM. In a further setting of the present invention the compounds were applied prior to the alpha 7 nicotinic receptor agonist, in a particular 10 minutes prior to the agonist.
A control response to choline was calculated on each plate from the difference in peak in fluorescence in wells receiving either choline or assay buffer alone. Compounds of the present invention were tested at a concentration range from 0.01 µM to 30 µM. Compounds were considered to have an interesting activity when they potentiated the choline signal at least with 200 % when tested at a concentration of 30 µM (the efficacy of 100 µM choline was defined as 100% in the absence of a PAM). An EC50 (or pEC50) was determined as a concentration relating to half the maximal effect, when a clear sigmoidal curve with top plateau was obtained.

T1 sequence (P36544 23-502): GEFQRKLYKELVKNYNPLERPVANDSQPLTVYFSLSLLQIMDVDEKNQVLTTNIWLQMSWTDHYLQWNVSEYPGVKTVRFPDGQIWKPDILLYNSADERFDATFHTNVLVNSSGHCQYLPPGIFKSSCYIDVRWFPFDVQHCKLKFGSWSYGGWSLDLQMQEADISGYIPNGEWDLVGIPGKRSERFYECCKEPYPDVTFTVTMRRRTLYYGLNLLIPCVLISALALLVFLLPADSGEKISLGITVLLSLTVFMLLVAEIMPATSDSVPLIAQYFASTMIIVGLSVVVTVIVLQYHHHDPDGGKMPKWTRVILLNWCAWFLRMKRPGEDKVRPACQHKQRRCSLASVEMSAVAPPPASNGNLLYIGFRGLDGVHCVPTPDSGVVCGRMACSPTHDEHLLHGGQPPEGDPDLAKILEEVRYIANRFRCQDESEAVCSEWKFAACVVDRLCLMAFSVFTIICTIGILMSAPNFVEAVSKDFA

| EC50 (Ca2+ assay as described in D.1) [µM] | Emax (Ca2+ assay as described in D.1) [%] | SMILES | Emax [%] |
| --- | --- | --- | --- |
| 0.178 | – | Cc1cc(-c2ccc(C3C[C@@H](C)O[C@@H](C)C3)c(F)c2CNC(=O)CC2CCC2)cc(C)n1 (relative stereo) [Compound 60] | – |
| 1.23 | – | Cc1cc(-c2ccc(N3C[C@@H](C)O[C@@H](C)C3)cc2CNC(=O)c2cc(C)on2)ccn1 [Compound 10] | – |
| 0.0324 | – | Cc1cc(-c2ccc(N3CCO[C@@H](C(F)(F)F)C3)c(F)c2CNC(=O)CC2CCC2)cc(C)n1 [Compound 71] | – |
| 0.0912 | – | Cc1cc(-c2ccc(N3C[C@@H](C)O[C@@H](C)C3)c(F)c2CNC(=O)C2CCCCC2)cc(C)n1 [Compound 46] | – |
| 0.12 | – | Cc1cc(-c2ccc(N3C[C@@H](C)O[C@@H](C)C3)c(F)c2CNC(=O)CC(C)C)cc(C)n1 [Compound 43] | – |
| 0.316 | – | Cc1cc(-c2ccc(N3C[C@@H](C)O[C@@H](C)C3)c(F)c2CNC(=O)CCCC(F)(F)F)cc(C)n1 [Compound 44] | – |
| 0.155 | – | Cc1cc(-c2ccc(N3CCO[C@@H](C(F)(F)F)C3)c(F)c2CNC(=O)C(C)C)cc(C)n1 [Compound 56] | – |
| < 0.01 | – | Cc1cc(-c2c(F)cc(N3CCO[C@@H](C(F)(F)F)C3)cc2CNC(=O)CC(C)C)cc(C)n1 [Compound 101] | – |
| 0.457 | – | Cc1cc(-c2ccc(C3C[C@@H](C)O[C@@H](C)C3)c(F)c2CNC(=O)CC2CC2)cc(C)n1 (relative stereo) [Compound 53] | – |
| 0.0794 | – | Cc1cc(-c2c(F)cc(N3C[C@@H](C)O[C@@H](C)C3)cc2CNC(=O)CC2CC2)ccn1 [Compound 87] | – |
| 0.132 | – | Cc1cc(-c2ccc(N3CCO[C@H](C(F)(F)F)C3)c(F)c2CNC(=O)CC(C)C)cc(C)n1 [Compound 68] | – |
| – | 119 | Cc1cc(-c2c(F)cc(N3CCCC(C(F)(F)F)C3)cc2CNC(=O)c2conc2C)cc(C)n1 (stereo not shown) [Compound 98] | – |
| 0.347 | – | Cc1cc(-c2ccc(N3CCO[C@H](C(F)(F)F)C3)c(F)c2CNC(=O)c2cc(C)on2)cc(C)n1 [Compound 67] | – |
| 0.589 | – | Cc1cc(-c2ccc(N3C[C@@H](C)O[C@@H](C)C3)cc2CNC(=O)C2CC2)ccn1 [Compound 14] | – |
| 0.589 | – | Cc1cc(-c2c(F)cc(N3C[C@@H](C)O[C@@H](C)C3)c(F)c2CNC(=O)C2CC2)cc(C)n1 [Compound 122] | – |
| – | 72.4 | Cc1cc(-c2ccc(N3CCCC(C(F)(F)F)C3)cc2CNC(=O)c2conc2C)cc(C)n1 (stereo not shown) [Compound 32] | – |
| – | 545 | Cc1cc(-c2ccc(N3CCOCC3)cc2CNC(=O)c2cc(C)on2)ccn1 [Compound 142] | – |

| SMILES | EC50 (Ca2+ assay as described in D.1) [µM] | Emax (Ca2+ assay as described in D.1) [%] | Emax [%] |
| --- | --- | --- | --- |
| Cc1cc(-c2c(F)cc(N3C[C@@H](C)O[C@@H](C)C3)cc2CNC(=O)CC2CC2)cc(C)n1 [Compound 74] | 0.0112 | – | 508 |
| O=C(CC1CC1)NCc1cc(N2CCOCC2)ccc1-c1ccncc1 [Compound 139] | 3.16 | – | 367 |
| Cc1cc(-c2ccc(N3CCOCC3)cc2CNC(=O)c2ccc(F)cc2C)ccn1 [Compound 31] | 0.479 | – | 576 |
| Cc1nocc1C(=O)NCc1cc(N2C[C@@H](C)O[C@@H](C)C2)ccc1-c1ccncc1 [Compound 17] | 1.66 | – | 681 |
| Cc1cc(-c2ccc(N3C[C@@H](C)O[C@@H](C)C3)cc2CNC(=O)c2ccc(F)cc2C)ccn1 [Compound 11] | 0.00933 | – | 912 |
| Cc1cc(-c2c(F)cc(N3C[C@@H](C)O[C@@H](C)C3)cc2CNC(=O)CC(C)C)cc(C)n1 [Compound 83] | 0.00708 | – | 906 |
| Cc1cc(-c2c(F)cc(N3C[C@@H](C)O[C@@H](C)C3)cc2CNC(=O)C2CCC2)cc(C)n1 [Compound 85] | 0.00617 | – | 954 |
| Cc1cc(-c2ccc(N3CCOCC3)cc2CNC(=O)c2conc2C)cc(C)n1 [Compound 26] | 0.457 | – | 202 |
| Cc1cc(-c2ccc(N3C[C@H](C(F)(F)F)C[C@H](C(F)(F)F)C3)cc2CNC(=O)c2conc2C)cc(C)n1 [Compound 19] | 0.0501 | – | 266 |
| Cc1cc(-c2ccc(N3C[C@@H](C)O[C@@H](C)C3)cc2CNC(=O)CC2CC2)ccn1 [Compound 13] | 0.282 | – | 915 |
